Laboratory results from ChEMBL document CHEMBL3885861, “Open TG-GATES”.

Organism: Rattus norvegicus
Assay: Open TG-GATES - Regimen: Daily Repeat
Assay type: toxicity, organism-based, Sprague-Dawley
Design: regimen Daily Repeat, gender Male, age 6 weeks
Conditions: in vivo, po, 300 mg/kg, route gavage, dose level Middle; for APTT / Bas / Eos / Fbg / Hb / Ht / Lym / MCH / MCHC / MCV / Mono / Neu / PT / Plat / RBC / Ret / WBC: tissue Blood; for KIDNEY_L / KIDNEY_R / KIDNEY_TOTAL: tissue Kidney; for LIVER: tissue Liver; for A/G / ALP / ALT / AST / BUN / CRE / Ca / Cl / DBIL / GLC / IP / K / LDH / Na / PL / RALB / TBIL / TC / TG / TP / gamma-GTP: tissue Plasma

CCOC(=O)CCC(=O)O[C@H]1[C@H](O[C@@H]2[C@@H](C)[C@H](O[C@H]3C[C@@](C)(OC)[C@@H](O)[C@H](C)O3)[C@@H](C)C(=O)O[C@H](CC)[C@@](C)(O)[C@H](O)[C@@H](C)C(=O)[C@H](C)C[C@@]2(C)O)O[C@H](C)C[C@@H]1N(C)C [ERYTHROMYCIN ETHYLSUCCINATE]
TERMINAL_BW (72 h, time 3 day): 237.7 g
APTT (72 h, time 3 day): 21.3 s
Bas (72 h, time 3 day): 0%
Eos (72 h, time 3 day): 1%
Fbg (72 h, time 3 day): 311.6 mg/dL
Hb (72 h, time 3 day): 13.5 g/dL
Ht (72 h, time 3 day): 39.3%
Lym (72 h, time 3 day): 83.2%
MCH (72 h, time 3 day): 21.5 pg
MCHC (72 h, time 3 day): 34.4%
MCV (72 h, time 3 day): 62.7 fL
Mono (72 h, time 3 day): 3%
Neu (72 h, time 3 day): 11.8%
PT (72 h, time 3 day): 15.8 s
Plat (72 h, time 3 day): 114.1 x10_4/uL
RBC (72 h, time 3 day): 627.6 x10_4/ul
Ret (72 h, time 3 day): 5.1%
WBC (72 h, time 3 day): 94.1 x10_2/uL
KIDNEY_L (72 h, time 3 day): 1 g
KIDNEY_R (72 h, time 3 day): 1 g
KIDNEY_TOTAL (72 h, time 3 day): 2 g
LIVER (72 h, time 3 day): 10.9 g
A/G (72 h, time 3 day): 1.2
ALP (72 h, time 3 day): 1728.8 IU/L
ALT (72 h, time 3 day): 44 IU/L
AST (72 h, time 3 day): 76 IU/L
BUN (72 h, time 3 day): 18.6 mg/dL
CRE (72 h, time 3 day): 0.2 mg/dL
Ca (72 h, time 3 day): 10.4 mg/dL
Cl (72 h, time 3 day): 108 meq/L
DBIL (72 h, time 3 day): 0 mg/dL
GLC (72 h, time 3 day): 192.6 mg/dL
IP (72 h, time 3 day): 7.3 mg/dL
K (72 h, time 3 day): 4.2 meq/L
LDH (72 h, time 3 day): 261 IU/L
Na (72 h, time 3 day): 141.2 meq/L
PL (72 h, time 3 day): 133.8 mg/dL
RALB (72 h, time 3 day): 3 g/dL
TBIL (72 h, time 3 day): 0.016 mg/dL
TC (72 h, time 3 day): 72.2 mg/dL
TG (72 h, time 3 day): 100.6 mg/dL
TP (72 h, time 3 day): 5.5 g/dL
gamma-GTP (72 h, time 3 day): 1.4 IU/L
TERMINAL_BW ([…], time 7 day): 269.9 g
TERMINAL_BW ([…], time 14 day): 321.9 g
TERMINAL_BW ([…], time 28 day): 391.2 g
APTT ([…], time 7 day): 22.2 s
Bas ([…], time 7 day): 0%
Eos ([…], time 7 day): 1%
Fbg ([…], time 7 day): 331.6 mg/dL
Hb ([…], time 7 day): 13.7 g/dL
Ht ([…], time 7 day): 40.6%
Lym ([…], time 7 day): 84.8%
MCH ([…], time 7 day): 20.9 pg
MCHC ([…], time 7 day): 33.6%
MCV ([…], time 7 day): 62.3 fL
Mono ([…], time 7 day): 2.2%
Neu ([…], time 7 day): 11.2%
PT ([…], time 7 day): 16.3 s
Plat ([…], time 7 day): 120.3 x10_4/uL
RBC ([…], time 7 day): 653 x10_4/ul
Ret ([…], time 7 day): 6.3%
WBC ([…], time 7 day): 86.1 x10_2/uL
APTT ([…], time 14 day): 22.1 s
Bas ([…], time 14 day): 0%
Eos ([…], time 14 day): 1%
Fbg ([…], time 14 day): 335.6 mg/dL
Hb ([…], time 14 day): 14.1 g/dL
Ht ([…], time 14 day): 40.7%
Lym ([…], time 14 day): 87.4%
MCH ([…], time 14 day): 20.5 pg
MCHC ([…], time 14 day): 34.7%
MCV ([…], time 14 day): 58.9 fL
Mono ([…], time 14 day): 2.2%
Neu ([…], time 14 day): 8.2%
PT ([…], time 14 day): 16.1 s
Plat ([…], time 14 day): 116 x10_4/uL
RBC ([…], time 14 day): 690 x10_4/ul
Ret ([…], time 14 day): 4.9%
WBC ([…], time 14 day): 110.3 x10_2/uL
APTT ([…], time 28 day): 24.1 s
Bas ([…], time 28 day): 0%
Eos ([…], time 28 day): 1.2%
Fbg ([…], time 28 day): 339.2 mg/dL
Hb ([…], time 28 day): 15.6 g/dL
Ht ([…], time 28 day): 45.3%
Lym ([…], time 28 day): 85.4%
MCH ([…], time 28 day): 19 pg
MCHC ([…], time 28 day): 34.3%
MCV ([…], time 28 day): 55.3 fL
Mono ([…], time 28 day): 2.4%
Neu ([…], time 28 day): 9.2%
PT ([…], time 28 day): 16 s
Plat ([…], time 28 day): 99.2 x10_4/uL
RBC ([…], time 28 day): 819.8 x10_4/ul
Ret ([…], time 28 day): 2.5%
WBC ([…], time 28 day): 96.8 x10_2/uL
KIDNEY_L ([…], time 7 day): 1.1 g
KIDNEY_R ([…], time 7 day): 1.1 g
KIDNEY_TOTAL ([…], time 7 day): 2.2 g
KIDNEY_L ([…], time 14 day): 1.3 g
KIDNEY_R ([…], time 14 day): 1.3 g
KIDNEY_TOTAL ([…], time 14 day): 2.6 g
KIDNEY_L ([…], time 28 day): 1.4 g
KIDNEY_R ([…], time 28 day): 1.4 g
KIDNEY_TOTAL ([…], time 28 day): 2.9 g
LIVER ([…], time 7 day): 12.2 g
LIVER ([…], time 14 day): 13.9 g
LIVER ([…], time 28 day): 15.4 g
A/G ([…], time 7 day): 1.2
ALP ([…], time 7 day): 1819.6 IU/L
ALT ([…], time 7 day): 42.4 IU/L
AST ([…], time 7 day): 70.4 IU/L
BUN ([…], time 7 day): 19 mg/dL
CRE ([…], time 7 day): 0.2 mg/dL
Ca ([…], time 7 day): 10.6 mg/dL
Cl ([…], time 7 day): 107.6 meq/L
DBIL ([…], time 7 day): 0 mg/dL
GLC ([…], time 7 day): 194.6 mg/dL
IP ([…], time 7 day): 7.3 mg/dL
K ([…], time 7 day): 4.1 meq/L
LDH ([…], time 7 day): 185.6 IU/L
Na ([…], time 7 day): 142 meq/L
PL ([…], time 7 day): 148.2 mg/dL
RALB ([…], time 7 day): 3 g/dL
TBIL ([…], time 7 day): 0.002 mg/dL
TC ([…], time 7 day): 76 mg/dL
TG ([…], time 7 day): 123.6 mg/dL
TP ([…], time 7 day): 5.5 g/dL
gamma-GTP ([…], time 7 day): 1.6 IU/L
A/G ([…], time 14 day): 1.1
ALP ([…], time 14 day): 1368.6 IU/L
ALT ([…], time 14 day): 35 IU/L
AST ([…], time 14 day): 70.2 IU/L
BUN ([…], time 14 day): 19.4 mg/dL
CRE ([…], time 14 day): 0.2 mg/dL
Ca ([…], time 14 day): 10.4 mg/dL
Cl ([…], time 14 day): 107.6 meq/L
DBIL ([…], time 14 day): 0 mg/dL
GLC ([…], time 14 day): 206.6 mg/dL
IP ([…], time 14 day): 7.2 mg/dL
K ([…], time 14 day): 4 meq/L
LDH ([…], time 14 day): 157.8 IU/L
Na ([…], time 14 day): 141.8 meq/L
PL ([…], time 14 day): 146.8 mg/dL
RALB ([…], time 14 day): 2.9 g/dL
TBIL ([…], time 14 day): 0.01 mg/dL
TC ([…], time 14 day): 79.8 mg/dL
TG ([…], time 14 day): 105.2 mg/dL
TP ([…], time 14 day): 5.5 g/dL
gamma-GTP ([…], time 14 day): 1.6 IU/L
A/G ([…], time 28 day): 1.1
ALP ([…], time 28 day): 1061.2 IU/L
ALT ([…], time 28 day): 36.8 IU/L
AST ([…], time 28 day): 59.2 IU/L
BUN ([…], time 28 day): 19.6 mg/dL
CRE ([…], time 28 day): 0.2 mg/dL
Ca ([…], time 28 day): 10.5 mg/dL
Cl ([…], time 28 day): 106.4 meq/L
DBIL ([…], time 28 day): 0 mg/dL
GLC ([…], time 28 day): 203.4 mg/dL
IP ([…], time 28 day): 6.9 mg/dL
K ([…], time 28 day): 4 meq/L
LDH ([…], time 28 day): 130.6 IU/L
Na ([…], time 28 day): 141.4 meq/L
PL ([…], time 28 day): 151.8 mg/dL
RALB ([…], time 28 day): 3.1 g/dL
TBIL ([…], time 28 day): 0.014 mg/dL
TC ([…], time 28 day): 78.2 mg/dL
TG ([…], time 28 day): 140 mg/dL
TP ([…], time 28 day): 5.8 g/dL
gamma-GTP ([…], time 28 day): 2.2 IU/L
